Results on 15 molecules are retold here after patent US6900219B2, “ABCA-1 elevating compounds” (CV Therapeutics, Inc., priority 2002, dated 2005).

For the assay, the system named is ABCA-1 gene. In words: compounds tested and found to elevate cellular expression of the ABCA-1 gene (Examples 1-6; test not named). Format: cell-based. Here is the method:
Activity testing is conducted as described in those patents and patent applications referenced above, and in the Examples below, and by methods apparent to one skilled in the art.
On to `CCc1c(C(=O)NCCC(C)C)cnn1-c1nc(-c2ccc(OC)cc2)cs1` [{5-ethyl-1-[4-(4-methoxyphenyl)(1,3-thiazol-2-yl)]pyrazol-4-yl}-N-(3-methylbutyl)carboxamide], for which the “cellular expression of the ABCA-1 gene” value is “elevate cellular expression of the ABCA-1 gene”. On to `CCc1c(C(=O)NCCc2ccccc2)cnn1-c1nc(-c2ccc(C)cc2)cs1` [{5-ethyl-1-[4-(4-methylphenyl)(1,3-thiazol-2-yl)]pyrazol-4-yl}-N-(2-phenylethyl)carboxamide], for which the “cellular expression of the ABCA-1 gene” value is listed as “elevate cellular expression of the ABCA-1 gene”.

Consider `Cc1c(C(=O)NCCc2ccccc2)cnn1-c1nc(-c2ccc(F)cc2)cs1` [{5-methyl-1-[4-(4-fluorophenyl)(1,3-thiazol-2-yl)]pyrazol-4-yl}-N-(2-phenylethyl)carboxamide], for which the “cellular expression of the ABCA-1 gene” value is “elevate cellular expression of the ABCA-1 gene”. `CCCCNC(=O)c1cnn(-c2nc(-c3ccc(C)cc3)cs2)c1C` [{5-methyl-1-[4-(4-methylphenyl)(1,3-thiazol-2-yl)]pyrazol-4-yl}-N-butylcarboxamide]: the “cellular expression of the ABCA-1 gene” value was “elevate cellular expression of the ABCA-1 gene”. `CCCCCNC(=O)c1cnn(-c2nc(-c3ccc(C)cc3)cs2)c1C` [{5-methyl-1-[4-(4-methylphenyl)(1,3-thiazol-2-yl)]pyrazol-4-yl}-N-pentylcarboxamide]: the “cellular expression of the ABCA-1 gene” value was “elevate cellular expression of the ABCA-1 gene”. On to “(2,4-difluorophenyl)-N-(4-naphthyl(1,3-thiazol-2-yl))carboxamide”, for which the “cellular expression of the ABCA-1 gene” value is “elevate cellular expression of the ABCA-1 gene”. Then “(3-chlorobenzo[b]thiophen-2-yl)-N-(ethynylcyclohexyl)carboxamide”, with “elevate cellular expression of the ABCA-1 gene”; and “N-(2-phenylcyclopropyl)piperidylcarboxamide”, with “elevate cellular expression of the ABCA-1 gene”; and “N-(4-naphthyl(1,3-thiazol-2-yl))(4-phenylphenyl)carboxamide”, with “elevate cellular expression of the ABCA-1 gene”.

Consider “N-(4-naphthyl(1,3-thiazol-2-yl))[3-(trifluoromethyl)phenyl]carboxamide”, for which the “cellular expression of the ABCA-1 gene” value was “elevate cellular expression of the ABCA-1 gene”. On to “N-(4-naphthyl(1,3-thiazol-2-yl))[4-(trifluoromethoxy)phenyl]carboxamide”, for which the “cellular expression of the ABCA-1 gene” value is given as “elevate cellular expression of the ABCA-1 gene”. Then “[4-(methylethyl)phenyl]-N-(4-oxo(1,3-thiazolin-2-yl))carboxamide”, with “elevate cellular expression of the ABCA-1 gene”; and “[4-(tert-butyl)phenyl]-N-(4-naphthyl(1,3-thiazol-2-yl))carboxamide”, with “elevate cellular expression of the ABCA-1 gene”; and “[((2E)-2-pentyl-3-phenylprop-2-enyl)({1-[(4-butylphenyl)carbonyl](4-piperidyl)}methyl)amino]-N-benzamide”, with “elevate cellular expression of the ABCA-1 gene”. As for “{1-[4-(3-methoxyphenyl)(1,3-thiazol-2-yl)]-5-methylpyrazol-4-yl}-N-(methylethyl)carboxamide”, the “cellular expression of the ABCA-1 gene” value is reported as “elevate cellular expression of the ABCA-1 gene”.
